# Data taken from ChEMBL document CHEMBL3612026, “Biological activity of N(4)-boronated derivatives of 2'-deoxycytidine, potential agents for boron-neutron capture therapy” (Bioorg Med Chem, 2015).
# Active and inactive are the calls of the source. The calls are words filed in the database; no cut-off is given here.
# Experiments:
# BJ [1] = assay: Induction of apoptosis in human BJ cells assessed as induction of […] fragmentation at 5 to 40 mM after 48 hrs by DAPI staining-based fluorescence assay; type: cell-based; conditions: 40000 µM
# BJ [2] = assay: Cytotoxicity against human BJ cells after 48 hrs by XTT assay; type: cell-based
# SCC-15 [3] = assay: Induction of apoptosis in human SCC15 cells assessed as induction of […] fragmentation at 20 to 40 mM after 48 hrs by DAPI staining-based laser scanning confocal microscopic analysis; type: functional, cell-based
# [4] = Cytotoxicity against human SCC15 cells after 48 hrs by neutral red assay; type: functional, cell-based; conditions: SCC-15, 48 h
# SCC-15 [5] = assay: Binding affinity to DNA in human SCC-15 cells at 1 mM after 5 days by laser desorption/ionization mass spectrometric analysis; type: cell-based
# BJ [6] = assay: Induction of apoptosis in human BJ cells assessed as induction of […] fragmentation at 20 to 40 mM after 48 hrs by DAPI staining-based laser scanning confocal microscopic analysis; type: cell-based; conditions: 40000 µM
# SCC-15 [7] = assay: Induction of apoptosis in human SCC15 cells assessed as induction of […] fragmentation at 20 to 40 mM after 48 hrs by DAPI staining-based fluorescence assay; type: functional, cell-based
# BJ [8] = assay: Cytotoxicity against human BJ cells after 48 hrs by neutral red assay; type: cell-based
# [9] = Cytotoxicity against human SCC15 cells after 48 hrs by XTT assay; type: functional, cell-based; conditions: SCC-15, 48 h
structure (smiles),measurement,setting,value
CC1(C)OB(CNc2ccn([C@H]3C[C@@H](O)[C@@H](CO)O3)c(=O)n2)OC1(C)C,Activity,BJ [1],Non-toxic
same,IC50,BJ [2],45.1 mM
same,Activity,SCC-15 [3],Active
same,IC50,[4],16.4 mM
same,Activity,SCC-15 [5],Active
same,Activity,BJ [6],Non-toxic
same,Activity,SCC-15 [7],Active
same,IC50,BJ [8],49.5 mM
same,IC50,[9],18.8 mM
